Results on one molecule are retold here after patent US20260325490A1, “ORAL FORMULATIONS OF EDARAVONE AND IMPROVED METHOD OF MANUFACTURING THEREOF” (BDR PHARMACEUTICALS INTERNATIONAL PRIVATE LIMITED, priority 2022, published 2026).

The structures appear in SMILES notation.

The nature of data set [1]: Chemical stability of Edaravone (hydrolysis, oxidation). Type of data set: physicochemical. Particulars: aqueous solution, compared to the powdered form. From the text:
It may be noted that the efficacy of Edaravone has seen an undisputed success since its inception in the therapeutic category of stroke management. Edaravone per se has wide applicability and has potential to be used for more therapeutic indications. The injectable dosage form has been a limiting factor in case of increased use of this product. Importantly, developing an oral dosage form of Edaravone is a challenging process due to its less soluble and less permeable (BCS Class-IV product) nature. Further, an injectable dosage form has inherent difficulty in terms of its usage post hospitalization. […] The inventors of the present invention during development have noted that it was difficult to stabilize Edaravone.

The conditions of data set [2]: cited from earlier work.
The conditions of data set [3]: cited from earlier work. This is another data set of the same source.

Regarding `CC1=NN(c2ccccc2)C(=O)C1` [Edaravone, 3-methyl-1-phenyl-2-pyrazolin-5-one], the Decomposition by oxidation entry in data set [1] is recorded as “easily decompose by oxidation”. The “Solubility in acetic acid” value in data set [2] (acetic acid) is on record as “freely soluble”. Moreover, the “Solubility in diethyl ether” value in data set [2] (diethyl ether) is “slightly soluble”. Also, the Solubility in ethanol result in data set [2] (ethanol) was “freely soluble”. For the same molecule, in data set [2] (methanol), the Solubility in methanol result is listed as “freely soluble”. For the same molecule, the Solubility in water result in data set [2] (water) is listed as “slightly soluble”. Besides, the Lipid permeability entry in data set [3] is reported as “lower lipid permeability”. For the same molecule, in data set [3] (poor solubility in water and lower lipid permeability), the “Bio-pharmaceutics Classification System (BCS) class” value was “Class IV”.
